Experiments:
α2C adrenergic receptors = biological target: T1, α2C adrenergic receptors (Homo sapiens, UniProt P18825); assay: Radioligand binding assay, adrenergic α2C receptors; settings: test compound 1×10^−6 M
T1 construct: expressed in transfected cells; host or cells: CHO cells
T1 sequence (P18825 1-462): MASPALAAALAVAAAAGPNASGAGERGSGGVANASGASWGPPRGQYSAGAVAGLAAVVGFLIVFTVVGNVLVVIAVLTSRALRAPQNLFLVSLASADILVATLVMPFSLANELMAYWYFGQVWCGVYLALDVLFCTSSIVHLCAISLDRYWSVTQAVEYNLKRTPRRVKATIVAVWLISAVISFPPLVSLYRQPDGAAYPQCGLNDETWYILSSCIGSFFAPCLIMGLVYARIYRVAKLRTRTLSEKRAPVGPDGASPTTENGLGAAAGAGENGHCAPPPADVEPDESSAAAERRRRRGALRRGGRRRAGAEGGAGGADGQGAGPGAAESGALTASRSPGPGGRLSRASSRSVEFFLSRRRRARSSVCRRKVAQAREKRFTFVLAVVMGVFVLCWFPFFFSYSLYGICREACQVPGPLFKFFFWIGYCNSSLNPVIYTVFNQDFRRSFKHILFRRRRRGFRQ
From the text: (§1) The specific ligand binding to the receptors is defined as the difference between the total binding and the non-specific binding determined in the presence of the excess of unlabelled ligand.
(§2) The results are expressed as a percent of control specific binding ((measured specific binding/control specific binding)×100) and as a percent inhibition of control specific binding (100−((measured specific binding/control specific binding)×100)) obtained in the presence of the test compounds. The specific ligand binding to the receptors is defined as the difference between the total binding and the nonspecific binding determined in the presence of an excess of unlabelled ligand. Scintillation counting was the method of detection of ligand binding. The IC50 values (concentration causing a half-maximal inhibition of control specific binding) were determined by non-linear regression analysis of the competition curves generated with mean replicate values using Hill equation curve fitting (Y=D+[(A−D)/(1+(C/C50)nH)], where Y=specific binding, D=minimum specific binding, A=maximum specific binding, C=compound concentration, C50=IC50, and nH=slope factor). This analysis was performed using a software developed at Cerep (Hill software) and validated by comparison with data generated by the commercial software SigmaPlot® 4.0 for Windows® (© 1997 by SPSS Inc.). The inhibition constants (Ki) were calculated using the Cheng Prusoff equation (Ki=IC50/(1+(L/KD)), where L=concentration of radioligand in the assay, and KD=affinity of the radioligand for the receptor). A scatchard plot was used to determine the Kd.
Experimental conditions for tests are given in Table 7, and results of tests for representative compounds are given in Tables 8 (α1 receptors) and in Tables 9 (α2C receptors).

[1] = biological target: dopaminergic receptors D2 (Homo sapiens, UniProt P14416); assay: Radioligand binding assay, dopaminergic D2 receptors; settings: for inhibition at 1 µM / D2 [%]: binding assay, test compound 1×10^−6 M; for Ki: read-out: Inhibition constants Ki for D2 receptors, D2
In short: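 Values derive from competition curves: percent inhibition of control specific binding was fitted by Hill non-linear regression for IC50, and Ki calculated with Cheng–Prusoff from radioligand concentration and KD (Scatchard). Bound ligand was detected by scintillation counting.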

[2] = tested on: α1 adrenergic receptors (rat cerebral cortex); assay: Radioligand binding assay, adrenergic α1 receptors; settings: test compound 1×10^−6 M
In short: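 Values derive from radioligand displacement, with non-specific binding defined by excess cold ligand and detection by scintillation. Hill-fit IC50s were converted to Ki via Cheng-Prusoff using Scatchard-derived Kd; percent inhibition of control specific binding also reported.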

[3] = biological target: T2, serotonin transporter (SERT) (Homo sapiens, UniProt P31645); assay: Radioligand binding assay, serotonin transporter (SERT); settings: for inhibition at 1 µM / SERT [%]: binding assay, test compound 1×10^−6 M
T2 construct: expressed in transfected cells; host or cells: CHO cells
In short: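 Values are derived from competition curves fitted by the Hill equation to give IC50, then converted to Ki by Cheng-Prusoff with radioligand Kd from Scatchard analysis. Specific binding equals total minus non-specific (excess cold ligand), counted by scintillation, and is also expressed as percent inhibition of control.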

[4] = biological target: T3, 5-HT1A receptor (rat hippocampus) (Rattus norvegicus, UniProt P19327); assay: Radioligand binding assay, serotoninergic 5-HT1A receptors; settings: binding assay result in %, Table 5a
T3 construct: hippocampus; from tissue; host or cells: rat hippocampus
T3 sequence (P19327 1-422): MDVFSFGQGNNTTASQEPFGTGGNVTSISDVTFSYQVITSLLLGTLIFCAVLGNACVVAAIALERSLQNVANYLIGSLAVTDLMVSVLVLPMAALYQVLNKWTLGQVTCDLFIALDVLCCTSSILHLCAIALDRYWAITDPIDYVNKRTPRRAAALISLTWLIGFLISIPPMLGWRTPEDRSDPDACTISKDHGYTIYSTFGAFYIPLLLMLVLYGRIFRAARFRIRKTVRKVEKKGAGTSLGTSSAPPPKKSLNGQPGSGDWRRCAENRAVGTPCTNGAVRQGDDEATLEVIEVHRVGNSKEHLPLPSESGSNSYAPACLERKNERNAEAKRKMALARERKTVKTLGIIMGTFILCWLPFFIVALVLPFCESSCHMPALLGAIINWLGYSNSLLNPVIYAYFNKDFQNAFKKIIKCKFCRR

σ receptors = assay: Radioligand binding assay, σ receptors; settings: rat cerebral cortex, [3H]DTG 8 nM
From the text: as §1
as §2, with “This analysis was performed using a software developed at Cerep (Hill software) and validated by comparison with data generated by the commercial software SigmaPlot® 4.0 for Windows® (© 1997 by SPSS Inc.).” left out

Sequence of dopaminergic receptors D2 (P14416 whole entry): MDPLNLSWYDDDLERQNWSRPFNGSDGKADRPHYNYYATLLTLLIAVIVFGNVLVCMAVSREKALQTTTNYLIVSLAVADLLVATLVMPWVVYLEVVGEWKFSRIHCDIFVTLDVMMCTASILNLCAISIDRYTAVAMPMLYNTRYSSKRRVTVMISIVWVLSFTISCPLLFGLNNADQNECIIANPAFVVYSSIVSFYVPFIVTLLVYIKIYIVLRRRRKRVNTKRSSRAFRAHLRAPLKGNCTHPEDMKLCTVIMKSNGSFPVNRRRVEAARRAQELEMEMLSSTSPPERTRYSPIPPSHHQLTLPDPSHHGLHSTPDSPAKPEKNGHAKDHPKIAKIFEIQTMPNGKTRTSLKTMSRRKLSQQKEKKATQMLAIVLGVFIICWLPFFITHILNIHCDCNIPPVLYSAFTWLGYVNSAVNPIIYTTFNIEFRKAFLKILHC
T2 sequence (P31645 whole entry): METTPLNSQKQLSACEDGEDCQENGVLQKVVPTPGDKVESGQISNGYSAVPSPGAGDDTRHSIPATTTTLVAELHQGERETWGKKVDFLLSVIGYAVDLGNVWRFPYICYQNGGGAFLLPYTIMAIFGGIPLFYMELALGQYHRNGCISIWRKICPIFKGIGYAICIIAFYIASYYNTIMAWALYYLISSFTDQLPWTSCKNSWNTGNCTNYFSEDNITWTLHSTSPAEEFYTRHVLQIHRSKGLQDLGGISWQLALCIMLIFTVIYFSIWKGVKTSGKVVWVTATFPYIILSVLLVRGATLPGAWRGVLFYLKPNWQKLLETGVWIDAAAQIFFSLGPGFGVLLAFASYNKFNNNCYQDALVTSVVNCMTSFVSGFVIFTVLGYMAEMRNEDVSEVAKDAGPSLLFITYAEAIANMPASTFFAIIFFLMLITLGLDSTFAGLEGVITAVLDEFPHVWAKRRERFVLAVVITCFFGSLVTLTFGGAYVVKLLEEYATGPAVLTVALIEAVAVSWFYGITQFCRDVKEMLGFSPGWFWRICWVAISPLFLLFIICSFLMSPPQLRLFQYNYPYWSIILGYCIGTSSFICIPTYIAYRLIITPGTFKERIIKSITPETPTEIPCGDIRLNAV

In the case of `COc1ccc2cc(S(=O)(=O)N[C@H]3CCN(CCCc4noc5cc(F)ccc45)C3)ccc2c1` [Compound 231, N-[(3S)-1-[3-(6-Fluoro-1,2-benzoxazol-3-yl)propyl]pyrrolidin-3-yl]-6-methoxy-naphthalene-2-sulphonamide], the inhibition at 1 µM (α2C adrenergic receptors) is reported as 89%, the inhibition at 1 µM [1] is reported as 95% and the Ki [1] is reported as 6.4 nM. For the same compound, the “α1 [%]” value [2] was 79%, the inhibition at 1 µM [3] was 63% and the inhibition at 1 µM [4] was 34%. For the same compound, the “σ [%]” value (σ receptors) was 87%.
For `O=S(=O)(NCC1CN(CCOc2cccc3c2OCCO3)C1)c1cc2ccccc2o1` [Compound 186, N-[[1-[2-(2,3-Dihydro-1,4-benzodioxin-5-yloxy)ethyl]azetidin-3-yl]methyl]-benzofuran-2-sulphonamide], the inhibition at 1 µM (α2C adrenergic receptors) was 96%, the inhibition at 1 µM [1] was 77% and the “α1 [%]” value [2] was 80%. The inhibition at 1 µM [3] was 39%, the inhibition at 1 µM [4] was 98% and the “σ [%]” value (σ receptors) was 84%.
With `O=S(=O)(NCC1CN(CCCc2noc3cc(F)ccc23)C1)c1ccc(-c2ccccc2)cc1` [Compound 135, N-[[1-[3-(6-Fluoro-1,2-benzoxazol-3-yl)propyl]azetidin-3-yl]methyl]-4-phenyl-benzenesulphonamide] the inhibition at 1 µM (α2C adrenergic receptors) was 95%, the inhibition at 1 µM [1] was 92% and the “α1 [%]” value [2] was 88%. For the same compound, the inhibition at 1 µM [3] was 68%, the inhibition at 1 µM [4] was 77% and the “σ [%]” value (σ receptors) was 94%.
`O=S(=O)(N[C@H]1CCN(CCCc2noc3cc(F)ccc23)C1)c1cc2ccccc2o1` [Compound 215, N-[(3S)-1-[3-(6-Fluoro-1,2-benzoxazol-3-yl)propyl]pyrrolidin-3-yl]benzo-furan-2-sulphonamide] was tested, and the inhibition at 1 µM (α2C adrenergic receptors) was 66%, the inhibition at 1 µM [1] was 97% and the Ki [1] was 3 nM. For the same compound, the “α1 [%]” value [2] was 89%, the inhibition at 1 µM [3] was 35% and the inhibition at 1 µM [4] was 52%. The “σ [%]” value (σ receptors) was 81%.
With `O=S(=O)(N[C@@H]1CCN(CCCc2noc3cc(F)ccc23)C1)c1cc2ccccc2o1` [Compound 214, N-[(3R)-1-[3-(6-Fluoro-1,2-benzoxazol-3-yl)propyl]pyrrolidin-3-yl]benzo-furan-2-sulphonamide] the inhibition at 1 µM (α2C adrenergic receptors) was 74%, the inhibition at 1 µM [1] was 97% and the Ki [1] was 2.8 nM. For the same compound, the “α1 [%]” value [2] was 91%, the inhibition at 1 µM [3] was 15% and the inhibition at 1 µM [4] was 34%. The “σ [%]” value (σ receptors) was 84%.
For `O=S(=O)(NC1CN(CCOc2cccc3c2OCCO3)C1)c1cccc2ccccc12` [Compound 94, N-[1-[2-(2,3-Dihydro-1,4-benzodioxan-8-yloxy)ethyl]azetidin-3-yl]-naphthalene-1-sulphonamide], the “α2C [%]” value (α2C adrenergic receptors) was 106%, the “D2 [%]” value [1] was 102% and the “α1 [%]” value [2] was 87%. The “SERT [%]” value [3] was 62%, the “5-HT1A [%]” value [4] was 98% and the “σ [%]” value (σ receptors) was 71%.
`O=S(=O)(NC1CCN(CCCc2noc3cc(F)ccc23)CC1)c1cccc2ccccc12` [Compound 34, N-[1-[3-(6-Fluoro-1,2-benzoxazol-3-yl)propyl]-4-piperidine]-naphthalene-1-sulphonamide] was tested, and the inhibition at 1 µM (α2C adrenergic receptors) was 94%, the inhibition at 1 µM [1] was 76% and the “α1 [%]” value [2] was 91%. For the same compound, the inhibition at 1 µM [3] was 43%, the inhibition at 1 µM [4] was 32% and the “σ [%]” value (σ receptors) was 50%.
In the case of `O=S(=O)(NC1CN(CCOc2cccc3c2OCCO3)C1)c1ccc(Cl)cc1` [Compound 92, 4-Chloro-N-[1-[2-(2,3-dihydro-1,4-benzodioxan-8-yloxy)ethyl]azetidin-3-yl]benzene-sulphonamide], the “α2C [%]” value (α2C adrenergic receptors) is reported as 76%, the “D2 [%]” value [1] is reported as 49% and the “α1 [%]” value [2] is reported as 47%. For the same compound, the “SERT [%]” value [3] was 10%, the “5-HT1A [%]” value [4] was 100% and the “σ [%]” value (σ receptors) was 15%.
With `CC1(C)Cc2cccc(OCCN3CCC(NS(=O)(=O)c4cccc(O)c4)CC3)c2O1` [Compound 109, N-[1-[2-[(2,2-Dimethyl-3H-benzofuran-7-yl)oxy]ethyl]-4-piperidine]-3-hydroxy-benzenesulphonamide] the “α2C [%]” value (α2C adrenergic receptors) was 98%, the “D2 [%]” value [1] was 92% and the “α1 [%]” value [2] was 44%. The “SERT [%]” value [3] was −10%, the “5-HT1A [%]” value [4] was 96% and the “σ [%]” value (σ receptors) was 39%.
In the case of `O=S(=O)(NC1CN(CCOc2cccc3[nH]ccc23)C1)c1cccc(Cl)c1` [Compound 47, 3-Chloro-N-[1-[2-(1H-indol-4-yloxy)ethyl]azetidin-3-yl]benzene-sulphonamide], the inhibition at 1 µM (α2C adrenergic receptors) is reported as 80%, the inhibition at 1 µM [1] is reported as 83% and the “α1 [%]” value [2] is reported as 71%. The inhibition at 1 µM [3] was 6%, the inhibition at 1 µM [4] was 98% and the “σ [%]” value (σ receptors) was 44%.
For `Cc1ccc2sc(S(=O)(=O)NC3CCN(CCCc4noc5cc(F)ccc45)C3)cc2c1` (stereo not shown) [Compound 226, N-[1-[3-(6-Fluoro-1,2-benzoxazol-3-yl)propyl]pyrrolidin-3-yl]-5-methylbenzothiophene-2-sulphonamide], the inhibition at 1 µM (α2C adrenergic receptors) was 86%, the inhibition at 1 µM [1] was 99% and the “α1 [%]” value [2] was 73%. The inhibition at 1 µM [3] was 54%, the inhibition at 1 µM [4] was 43% and the “σ [%]” value (σ receptors) was 82%.
With `Cc1c(S(=O)(=O)NC2CCN(CCCc3noc4cc(F)ccc34)C2)sc2ccc(Cl)cc12` (stereo not shown) [Compound 29, 5-Chloro-N-[1-[3-(6-fluoro-1,2-benzoxazol-3-yl)propyl]pyrrolidin-3-yl]-3-methyl-benzothiophene-2-sulphonamide] the inhibition at 1 µM (α2C adrenergic receptors) was 84%, the inhibition at 1 µM [1] was 97% and the “α1 [%]” value [2] was 18%. For the same compound, the inhibition at 1 µM [3] was 44%, the inhibition at 1 µM [4] was 70% and the “σ [%]” value (σ receptors) was 60%.
With `O=S(=O)(NC1CCN(CCCc2noc3cc(F)ccc23)C1)c1ccc(Cl)c(F)c1` (stereo not shown) [Compound 11, 4-Chloro-3-fluoro-N-[1-[3-(6-fluoro-1,2-benzoxazol-3-yl)propyl]-pyrrolidin-3-yl]benzene-sulphonamide] the inhibition at 1 µM (α2C adrenergic receptors) was 71%, the inhibition at 1 µM [1] was 89% and the “α1 [%]” value [2] was 70%. The inhibition at 1 µM [3] was -6%, the inhibition at 1 µM [4] was 60% and the “σ [%]” value (σ receptors) was 74%.
With `O=S(=O)(NC1CCN(CCCc2c[nH]c3ccc(F)cc23)C1)c1cccc2ccccc12` (stereo not shown) [Compound 79, N-[1-[3-(5-Fluoro-1H-indol-3-yl)propyl]pyrrolidin-3-yl]naphthalene-1-sulphonamide] the inhibition at 1 µM (α2C adrenergic receptors) was 96%, the inhibition at 1 µM [1] was 95% and the “α1 [%]” value [2] was 37%. The inhibition at 1 µM [3] was 105%, the Ki ([3]; read-out: Inhibition constants Ki for SERT, SERT) was 0.7 nM and the inhibition at 1 µM [4] was 99%. The “σ [%]” value (σ receptors) was 67%.

Reference: US20140135310A1, “SULPHONAMIDE DERIVATIVES OF ALICYCLIC AMINES FOR THE TREATMENT OF CENTRAL NERVOUS SYSTEM DISEASES” (Adamed Sp. z o.o., priority 2011, published 2014)
